According to publication PMC12564265, “Navigating the Deep Eutectic Solvent Landscape: Experimental and Machine Learning Solubility Explorations of Syringic, p-Coumaric, and Caffeic Acids” (International Journal of Molecular Sciences, 2025):
Several values for one entry are separate records, joined by “and”; a condition that tells them apart may be missing. Equal entries are not always repeated.

Assay: Shake-flask solubility with spectrophotometric measurement in aqueous DES mixtures
Type: physicochemical
Protocol: In order to determine the solubility of the three studied phenolic acids in deep eutectic solvents, a very well-established shake-flask method coupled with spectrophotometric measurements was utilized. The initial procedure involved the preparation of various DESs, which was conducted by mixing their HBA and HBD counterparts in a glass vessel and heating the composition until the formation of a transparent, uniform liquid. […] For additional measurements, the DESs were mixed with water in varying proportions, creating aqueous DES systems. Saturated solutions of CAF, SYR, and COU were obtained by adding excess amounts of these compounds to test tubes containing either a neat deep eutectic solvent or its aqueous solution. Such samples were placed in the Orbital Shaker Incubator ES-20/60 from Biosan (Riga, Latvia) and heated for 24 h at 25 °C, 30 °C, 35 °C, and 40 °C (±0.1 °C) with simultaneous mixing at 60 rpm. Before measurements, the samples were filtered using a PTFE syringe filter from Qpore (Dallas, TX, USA) with a 0.22 μm pore size. In order to avoid possible precipitation of the saturated solutions at decreased temperatures, the test tubes, syringes, pipette tips, and filters were kept at a temperature identical to that of the samples. The spectrophotometric measurements required the preparation of calibration curves for the three APIs. This involved the preparation of a stock solution of each compound in methanol, which was later successfully diluted, and the obtained solutions of varying concentrations were measured using an A360 spectrophotometer from AOE Instruments (Shanghai, China). The wavelength range was set to 200-500 nm, and the resolution was 1 nm. The analytical wavelengths were determined to be 324 nm for caffeic acid, 273 nm for syringic acid, and 308 nm for p-coumaric acid. The final regression equations, obtained after averaging three distinct sets of measurements, are collected in Table 2 together with determination coefficients and limits of detection (LOD) and quantification (LOQ) for the calibration curves. The measurements of the samples were conducted with the same spectrophotometer and identical settings. Methanol was used for the dilution of the samples so that they could remain within the linearity range of the method. Complete spectra of the samples were recorded, but for the solubility determination, the absorbance values at a specific analytical wavelength were considered. These values were combined with the corresponding regression equations of the calibration curves and served for the calculation of the concentration of the three phenolic acids in the studied samples. The densities of such samples were also measured, and for this task 1 mL of each sample was weighed to a precision of 0.1 mg using an AS 110 R2.PLUS analytical balance from […] (Radom, Poland). The obtained densities enabled the calculation of mole fractions of CAF, SYR, and COU dissolved in the studied DESs. For each considered system, three distinct measurements were conducted, and the results were averaged.

SMILES: O=C(O)C=Cc1ccc(O)cc1 [p-coumaric acid, 4-hydroxycinnamic acid]
- Mole fraction solubility (Bet – GLY 1:2 + water, x*DES 0.1, 25°C): 0.0093±0.0001 mole fraction
- Mole fraction solubility (Bet – GLY 1:2 + water, x*DES 0.1, 30°C): 0.0116±0.0001 mole fraction
- Mole fraction solubility (Bet – GLY 1:2 + water, x*DES 0.1, 35°C): 0.0146±0.0001 mole fraction
- Mole fraction solubility (Bet – GLY 1:2 + water, x*DES 0.1, 40°C): 0.0188±0.0001 mole fraction
- Mole fraction solubility (Bet – GLY 1:2 + water, x*DES 0.2, 25°C): 0.0212±0.0003 mole fraction
- Mole fraction solubility (Bet – GLY 1:2 + water, x*DES 0.2, 30°C): 0.0261±0.0002 mole fraction
- Mole fraction solubility (Bet – GLY 1:2 + water, x*DES 0.2, 35°C): 0.0328±0.0003 mole fraction
- Mole fraction solubility (Bet – GLY 1:2 + water, x*DES 0.2, 40°C): 0.0429±0.0003 mole fraction
- Mole fraction solubility (Bet – GLY 1:2 + water, x*DES 0.3, 25°C): 0.0316±0.0004 mole fraction
- Mole fraction solubility (Bet – GLY 1:2 + water, x*DES 0.3, 30°C): 0.0385±0.0003 mole fraction
- Mole fraction solubility (Bet – GLY 1:2 + water, x*DES 0.3, 35°C): 0.0489±0.0004 mole fraction
- Mole fraction solubility (Bet – GLY 1:2 + water, x*DES 0.3, 40°C): 0.0631±0.0003 mole fraction
- Mole fraction solubility (Bet – GLY 1:2 + water, x*DES 0.4, 25°C): 0.0424±0.0005 mole fraction
- Mole fraction solubility (Bet – GLY 1:2 + water, x*DES 0.4, 30°C): 0.0510±0.0004 mole fraction
- Mole fraction solubility (Bet – GLY 1:2 + water, x*DES 0.4, 35°C): 0.0654±0.0004 mole fraction
- Mole fraction solubility (Bet – GLY 1:2 + water, x*DES 0.4, 40°C): 0.0850±0.0007 mole fraction
- Mole fraction solubility (Bet – GLY 1:2 + water, x*DES 0.5, 25°C): 0.0545±0.0003 mole fraction
- Mole fraction solubility (Bet – GLY 1:2 + water, x*DES 0.5, 30°C): 0.0655±0.0004 mole fraction
- Mole fraction solubility (Bet – GLY 1:2 + water, x*DES 0.5, 35°C): 0.0843±0.0006 mole fraction
- Mole fraction solubility (Bet – GLY 1:2 + water, x*DES 0.5, 40°C): 0.1107±0.0012 mole fraction
- Mole fraction solubility (Bet – GLY 1:2 + water, x*DES 0.6, 25°C): 0.0687±0.0004 mole fraction
- Mole fraction solubility (Bet – GLY 1:2 + water, x*DES 0.6, 30°C): 0.0827±0.0006 mole fraction
- Mole fraction solubility (Bet – GLY 1:2 + water, x*DES 0.6, 35°C): 0.1045±0.0009 mole fraction
- Mole fraction solubility (Bet – GLY 1:2 + water, x*DES 0.6, 40°C): 0.1410±0.0021 mole fraction
- Mole fraction solubility (Bet – GLY 1:2 + water, x*DES 0.7, 25°C): 0.0803±0.0006 mole fraction
- Mole fraction solubility (Bet – GLY 1:2 + water, x*DES 0.7, 30°C): 0.0972±0.0008 mole fraction
- Mole fraction solubility (Bet – GLY 1:2 + water, x*DES 0.7, 35°C): 0.1233±0.0020 mole fraction
- Mole fraction solubility (Bet – GLY 1:2 + water, x*DES 0.7, 40°C): 0.1617±0.0014 mole fraction
- Mole fraction solubility (Bet – GLY 1:2 + water, x*DES 0.8, 25°C): 0.0900±0.0007 mole fraction
- Mole fraction solubility (Bet – GLY 1:2 + water, x*DES 0.8, 30°C): 0.1117±0.0011 mole fraction
- Mole fraction solubility (Bet – GLY 1:2 + water, x*DES 0.8, 35°C): 0.1413±0.0023 mole fraction
- Mole fraction solubility (Bet – GLY 1:2 + water, x*DES 0.8, 40°C): 0.1818±0.0015 mole fraction
- Mole fraction solubility (Bet – GLY 1:2 + water, x*DES 0.9, 25°C): 0.0926 mole fraction and 0.0926±0.0006 mole fraction
- Mole fraction solubility (Bet – GLY 1:2 + water, x*DES 0.9, 30°C): 0.1149±0.0011 mole fraction
- Mole fraction solubility (Bet – GLY 1:2 + water, x*DES 0.9, 35°C): 0.1464±0.0025 mole fraction
- Mole fraction solubility (Bet – GLY 1:2 + water, x*DES 0.9, 40°C): 0.1934±0.0021 mole fraction
- Mole fraction solubility (Bet – GLY 1:2, x*DES 1.0 (neat DES), 25°C): 0.0898±0.0003 mole fraction
- Mole fraction solubility (Bet – GLY 1:2, x*DES 1.0 (neat DES), 30°C): 0.1090±0.0010 mole fraction
- Mole fraction solubility (Bet – GLY 1:2, x*DES 1.0 (neat DES), 35°C): 0.1389±0.0009 mole fraction
- Mole fraction solubility (Bet – GLY 1:2, x*DES 1.0 (neat DES), 40°C): 0.1842±0.0017 mole fraction
- Increase in the solubility compared to the neat DES (Bet-GLY 1:2, x*DES = 0.9 (xwater = 0.1), 25 °C): 3%
- Mole fraction solubility (ChCl – TEG 1:2 + water, x*DES 0.1, 25°C): 0.0131±0.0002 mole fraction
- Mole fraction solubility (ChCl – TEG 1:2 + water, x*DES 0.1, 30°C): 0.0168±0.0002 mole fraction
- Mole fraction solubility (ChCl – TEG 1:2 + water, x*DES 0.1, 35°C): 0.0216±0.0002 mole fraction
- Mole fraction solubility (ChCl – TEG 1:2 + water, x*DES 0.1, 40°C): 0.0287±0.0003 mole fraction
- Mole fraction solubility (ChCl – TEG 1:2 + water, x*DES 0.2, 25°C): 0.0283±0.0002 mole fraction
- Mole fraction solubility (ChCl – TEG 1:2 + water, x*DES 0.2, 30°C): 0.0357±0.0002 mole fraction
- Mole fraction solubility (ChCl – TEG 1:2 + water, x*DES 0.2, 35°C): 0.0459±0.0004 mole fraction
- Mole fraction solubility (ChCl – TEG 1:2 + water, x*DES 0.2, 40°C): 0.0604±0.0004 mole fraction
- Mole fraction solubility (ChCl – TEG 1:2 + water, x*DES 0.3, 25°C): 0.0412±0.0004 mole fraction
- Mole fraction solubility (ChCl – TEG 1:2 + water, x*DES 0.3, 30°C): 0.0506±0.0006 mole fraction
